This test has as its system adjuvant induced arthritis. The test is described as follows: Adjuvant arthritis model in Lewis rats. It is filed as in vivo, rat.

As for `CNC(=O)[C@H]1O[C@@H](n2cnc3c(NCc4cccc(I)c4)nc(Cl)nc32)[C@H](O)[C@@H]1O` [Cl-IB-MECA, 2-chloro-N^6-(3-iodobenzyl)-adenosine-5′-N-methyl-uronamide], the appearance of paws result (10 μg/kg a day PO, untreated rat paws extremely swollen and red) is recorded as “normal appearing paws”. Moreover, the “improvement of arthritis score, 10 μg a day compared with 100 μg/kg a day” value (PO, from day 7 after disease induction, FIG. 4) is on record as “significantly more effective”.

(Values after patent US7141553B2, “A3AR agonists for the treatment of inflammatory arthritis” (Can-Fite Biopharma Ltd. Israel, priority 2002, dated 2006).)
